Experiments:
human Nav1.5 [1] = biological target: T1, human Nav1.5 (Homo sapiens (Human), UniProt Q14524); assay: Qpatch automated patch-clamp, peak Nav1.5 current inhibition, 5-Hz AF-like assay (holding potential -85 mV); type: cell-based
Source text: (§1) Electrophysiology was used to measure the ionic currents in isolated living cells using automated patch-clamp recording, performed using an automated patch-clamp machine called Qpatch (Sophion Bioscience). Two different assay conditions were used to identify compounds with atrial-selective potential. The 5-Hz AF-like assay has more depolarized holding potential at −85 mV to mimic atrial resting membrane potential (RMP) and was used to identify compounds of strong rate-dependence. Active, rate-dependent compounds were then screened at 1 Hz (i.e., sinus rate) at the holding potential of −100 mV to mimic the ventricular scenario and help identify compounds with the largest potency separation or attenuation from the 5-Hz AF-like assay. Such compounds have the potential for treating AF without the QRS liability inherent to Class Ic drugs.
(§2) The sodium current conducted through a cell (via Nav1.5) or electrical signals were processed through a low-pass filter at 5 KHz, re-digitalized and acquired at 20 kHz. Series resistance was not compensated and leak subtraction was performed.
(§3) 1 to 3 million Chinese Hamster Ovary cells (also known as CHO-K1) stably expressing human Nav1.5 were seeded into […] culture flasks with 25 mL medium (consisting of Gibco Dulbecco's Modified Eagle Medium as a base medium with 1% MEM non-essential amino acids, 400 μg/mL Geneticin, 5 μg/mL puromycin and 10% fetal bovine serum) 48-72 hours prior to the experiments. On the day of the experiment, cells were washed once with phosphate-buffered saline (also known as PBS; Gibco) detached with Detachin™ (Genlantis), and re-suspended in CHO—S-SFM II media (Gibco) at 200,000 cells/mL. The CHO—S-SFM II was replaced with assay solutions prior to the assays. Whole-cell currents were recorded at room temperature in the whole-cell configuration. The external aqueous assay solution (pH=7.4; Osm=307-315) contained the following (the concentration for each component is expressed in parentheses in mM): NaCl (140 mM), KCl (4 mM), CaCl2) (2 mM), MgCl2 (1 mM), 4-(2-hydroxyethyl)-1-piperazineethanesulfonic acid, also known as HEPES (10 mM), and glucose (5 mM). The internal aqueous assay solution (pH=7.2; Osm=292-295) contained the following (the concentration for each component is expressed in parentheses in mM): CsF (110 mM), CsCl (10 mM), NaCl (10 mM), HEPES (10 mM), and ethylene glycolbis(β-aminoethyl ether)-N,N,N′,N′-tetraacetic acid, also known as EGTA (10 mM).
To assess peak Nav1.5 current inhibition in an atrial fibrillation-mimicking condition (Nav1.5 IC50 (5 Hz, AF-like rate) (μM)), compounds were first prepared at 10 mM in DMSO, and cells were pre-incubated with test compounds at each concentration for 3 min. in an ascending order of 0, 0.37, 1.1, 3.3, 10 and 30 μM. An atrial action potential-like protocol consisting of a voltage ramp (+10 mV to −85 mV for a 150 ms duration and a holding potential at −85 mV) was then applied to cells at 5 Hz for 12 s until no further current change or inhibition was observed. The percent inhibition (expressed as ([Iafter compound treatment/Ibefore compound treatment]×100%) is calculated by normalizing the peak current amplitude at the last pulse of each of the 6 compound concentrations by the amplitude before exposure to the test compound. The compiled data was further normalized by vehicle control (DMSO) to account for Nav1.5 current run-down, and IC50 was calculated by Matlab (MathWorks, USA).

human Nav1.5 [2] = biological target: T1, human Nav1.5; assay: Qpatch automated patch-clamp, peak Nav1.5 current inhibition, 1 Hz with 50 nM ATX-II (holding potential -100 mV); type: cell-based; conditions: CHO-K1 cells stably expressing human Nav1.5, read-out: Nav1.5 IC50 (1 Hz, ATXII)
Source text: as §1, §2, §3
To assess peak Nav1.5 current inhibition mimicking a ventricular condition at sinus rate with or without ATX-II (Nav1.5 IC50 (1 Hz, ATXII) (μM) or (1 Hz, Sinus Rate) (μM)), compounds were first prepared at 10 mM in DMSO, and cells were pre-incubated with test compounds at each concentration for 3 min. in an ascending order of 0, 0.37, 1.1, 3.3, 10 and 30 uM. In the assay with ATX-II (Alomone Labs), 50 nM ATX-II was included during the 3-min. compound incubation. A square pulse (−10 mV; 400 ms and a holding potential at −100 mV) was run at 1 Hz for 25 s until no further inhibition or Nav1.5 current change was observed. The percent inhibition (expressed as ([Iafter compound treatment/Ibefore compound treatment]×100%) is calculated by normalizing the peak current amplitude at the last pulse of each of the 6 compound concentrations by the amplitude before exposure to the test compound. The compiled data was further normalized by vehicle control (DMSO) to account for Nav1.5 current run-down, and IC50 was calculated by Matlab (MathWorks, USA).

[3] = CHO-K1 cells stably expressing human Nav1.5, holding potential -85 mV, Table 5, read-out: Nav1.5 IC50 (5 Hz, AF Rate)
[4] = CHO-K1 cells stably expressing human Nav1.5, Table 6, Examples 63-90, read-out: Nav1.5 IC50 (5 Hz, AF Rate)

T1 sequence (Q14524 whole entry): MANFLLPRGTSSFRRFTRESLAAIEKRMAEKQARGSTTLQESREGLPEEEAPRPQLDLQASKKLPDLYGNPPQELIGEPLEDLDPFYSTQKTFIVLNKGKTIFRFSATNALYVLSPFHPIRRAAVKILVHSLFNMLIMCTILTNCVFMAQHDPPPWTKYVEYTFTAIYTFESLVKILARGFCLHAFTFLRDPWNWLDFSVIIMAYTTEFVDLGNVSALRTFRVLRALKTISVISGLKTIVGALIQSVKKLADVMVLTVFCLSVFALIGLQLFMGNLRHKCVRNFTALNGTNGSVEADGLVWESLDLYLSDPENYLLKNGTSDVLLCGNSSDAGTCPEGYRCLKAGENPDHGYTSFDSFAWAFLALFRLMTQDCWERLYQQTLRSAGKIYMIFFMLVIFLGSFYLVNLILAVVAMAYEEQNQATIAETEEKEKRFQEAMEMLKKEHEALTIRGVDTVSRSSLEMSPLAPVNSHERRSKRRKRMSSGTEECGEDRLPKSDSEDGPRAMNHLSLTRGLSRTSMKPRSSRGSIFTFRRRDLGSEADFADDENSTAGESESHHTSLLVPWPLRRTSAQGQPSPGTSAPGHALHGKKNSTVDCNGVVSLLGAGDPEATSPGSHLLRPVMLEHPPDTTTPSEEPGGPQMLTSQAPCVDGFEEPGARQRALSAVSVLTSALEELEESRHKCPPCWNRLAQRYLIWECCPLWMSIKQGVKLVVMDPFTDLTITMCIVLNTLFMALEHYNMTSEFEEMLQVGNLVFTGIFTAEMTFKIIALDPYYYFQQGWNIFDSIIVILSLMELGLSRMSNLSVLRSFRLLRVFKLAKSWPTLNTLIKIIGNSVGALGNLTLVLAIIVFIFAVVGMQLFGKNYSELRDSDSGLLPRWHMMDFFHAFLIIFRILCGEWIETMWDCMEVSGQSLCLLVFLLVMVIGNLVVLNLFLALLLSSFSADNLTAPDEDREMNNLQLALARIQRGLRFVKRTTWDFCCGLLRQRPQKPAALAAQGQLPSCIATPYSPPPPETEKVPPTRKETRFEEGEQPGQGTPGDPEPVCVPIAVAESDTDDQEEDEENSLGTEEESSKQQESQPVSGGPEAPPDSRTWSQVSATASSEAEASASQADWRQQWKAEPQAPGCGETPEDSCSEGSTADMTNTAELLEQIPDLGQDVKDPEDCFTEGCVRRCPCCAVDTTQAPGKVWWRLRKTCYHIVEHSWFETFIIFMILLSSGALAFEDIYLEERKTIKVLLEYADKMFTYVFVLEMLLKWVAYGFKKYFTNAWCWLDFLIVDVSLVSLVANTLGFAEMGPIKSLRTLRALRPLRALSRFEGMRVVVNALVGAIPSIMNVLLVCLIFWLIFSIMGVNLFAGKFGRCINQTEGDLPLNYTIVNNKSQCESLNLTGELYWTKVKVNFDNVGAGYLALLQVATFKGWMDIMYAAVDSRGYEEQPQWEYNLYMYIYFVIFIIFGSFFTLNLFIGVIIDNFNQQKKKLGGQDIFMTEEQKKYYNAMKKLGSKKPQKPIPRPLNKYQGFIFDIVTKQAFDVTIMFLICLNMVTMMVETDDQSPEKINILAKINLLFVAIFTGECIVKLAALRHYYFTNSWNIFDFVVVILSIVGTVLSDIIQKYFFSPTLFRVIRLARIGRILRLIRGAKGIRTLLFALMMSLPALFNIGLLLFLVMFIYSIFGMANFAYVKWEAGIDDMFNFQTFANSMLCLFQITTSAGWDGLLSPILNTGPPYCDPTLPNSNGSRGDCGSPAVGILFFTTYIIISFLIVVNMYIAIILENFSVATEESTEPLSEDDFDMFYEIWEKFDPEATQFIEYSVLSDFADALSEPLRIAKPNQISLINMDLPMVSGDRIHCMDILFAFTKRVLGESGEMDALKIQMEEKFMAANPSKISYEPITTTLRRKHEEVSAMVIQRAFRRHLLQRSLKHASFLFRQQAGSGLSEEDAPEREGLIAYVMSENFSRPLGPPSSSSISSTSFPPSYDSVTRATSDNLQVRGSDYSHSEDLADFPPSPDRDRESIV

Row | Compound | IC50 (human Nav1.5 [1]; [3]) [µM] | IC50 (human Nav1.5 [2]) [µM] | IC50 (human Nav1.5 [1]; [4]) [µM]
1 | NS(=O)(=O)CC(O)c1cccc(-c2ccn(Cc3cc(OC(F)(F)F)ccc3F)n2)n1 (racemic) [Example 36, 2-(6-(1-(2-fluoro-5-(trifluoromethoxy)benzyl)-1H-pyrazol-3-yl)pyridin-2-yl)-2-hydroxyethane-1-sulfonamide] | 3.7 | > 30 | 
2 | NS(=O)(=O)CC(O)(c1cccc(-c2ccn(Cc3cc(OC(F)(F)F)ccc3F)n2)n1)C(F)(F)F (racemic) [Example 39, 3,3,3-trifluoro-2-(6-(1-(2-fluoro-5-(trifluoromethoxy)benzyl)-1H-pyrazol-3-yl)pyridin-2-yl)-2-hydroxypropane-1-sulfonamide] | 4.4 | > 30 | 
3 | CC(O)(CS(N)(=O)=O)c1ccc(Cl)c(-c2nnn(Cc3cc(OC(F)(F)F)ccc3F)n2)n1 (racemic) [Rac-27 + 28, 2-(5-chloro-6-(2-(2-fluoro-5-(trifluoromethoxy)benzyl)-2H-tetrazol-5-yl)pyridin-2-yl)-2-hydroxypropane-1-sulfonamide] | 1.1 | 16 | 
4 | CC(O)(CS(N)(=O)=O)c1cccc(-c2cnn(Cc3cc(OC(F)(F)F)ccc3F)n2)n1 (racemic) [Rac-61 + 62] | 3.4 | > 30 | 
5 | CC(O)(CS(N)(=O)=O)c1cccc(-c2nnn(Cc3cc(C(F)(F)F)ccc3F)n2)n1 (single isomer, unassigned) [Example 19, (R or S)-2-(6-(2-(2-fluoro-5-(trifluoromethyl)benzyl)-2H-tetrazol-5-yl)pyridin-2-yl)-2-hydroxypropane-1-sulfonamide] | 5 | 14 | 
6 | CC(O)(CS(N)(=O)=O)c1cccc(-c2nnn(Cc3cc(C(F)(F)F)ccc3F)n2)n1 (single isomer, unassigned) [Example 20, (R or S)-2-(6-(2-(2-fluoro-5-(trifluoromethyl)benzyl)-2H-tetrazol-5-yl)pyridin-2-yl)-2-hydroxypropane-1-sulfonamide] | 7.9 | 23 | 
7 | CC(O)(CS(N)(=O)=O)c1cccc(-c2nnn(Cc3cc(Cl)ccc3F)n2)n1 (single isomer, unassigned) [Example 21, (R or S)-2-(6-(2-(5-chloro-2-fluorobenzyl)-2H-tetrazol-5-yl)pyridin-2-yl)-2-hydroxypropane-1-sulfonamide] | 6.3 | > 30 | 
8 | CC(O)(CS(N)(=O)=O)c1cccc(-c2nnn(Cc3cc(Cl)ccc3F)n2)n1 (single isomer, unassigned) [Example 22, (R or S)-2-(6-(2-(5-chloro-2-fluorobenzyl)-2H-tetrazol-5-yl)pyridin-2-yl)-2-hydroxypropane-1-sulfonamide] | 8.4 | 22 | 
9 | CC(O)(CS(N)(=O)=O)c1ccc(Cl)c(-c2nnn(Cc3cc(OC(F)(F)F)ccc3F)n2)n1 (single isomer, unassigned) [Example 27, (R or S)-2-(5-chloro-6-(2-(2-fluoro-5-(trifluoromethoxy)benzyl)-2H-tetrazol-5-yl)pyridin-2-yl)-2-hydroxypropane-1-sulfonamide] | 0.8 | 4.1 | 
10 | CC(O)(CS(N)(=O)=O)c1ccc(Cl)c(-c2nnn(Cc3cc(OC(F)(F)F)ccc3F)n2)n1 (single isomer, unassigned) [Example 28, (R or S)-2-(5-chloro-6-(2-(2-fluoro-5-(trifluoromethoxy)benzyl)-2H-tetrazol-5-yl)pyridin-2-yl)-2-hydroxypropane-1-sulfonamide] | 0.7 | 3.2 | 
11 | CC(O)(CS(N)(=O)=O)c1cccc(-c2ccn(Cc3cc(OC(F)(F)F)ccc3F)n2)n1 (single isomer, unassigned) [Example 37, (R or S)-2-(6-(1-(2-fluoro-5-(trifluoromethoxy)benzyl)-1H-pyrazol-3-yl)pyridin-2-yl)-2-hydroxypropane-1-sulfonamide] | 1.3 | 14 | 
12 | CC(O)(CS(N)(=O)=O)c1cccc(-c2ccn(Cc3cc(OC(F)(F)F)ccc3F)n2)n1 (single isomer, unassigned) [Example 38, (R or S)-2-(6-(1-(2-fluoro-5-(trifluoromethoxy)benzyl)-1H-pyrazol-3-yl)pyridin-2-yl)-2-hydroxypropane-1-sulfonamide] | 4.3 | > 30 | 
13 | CC(O)(CS(N)(=O)=O)c1cccc(-c2nc(Cc3cc(OC(F)(F)F)ccc3F)no2)n1 (single isomer, unassigned) [Example 57, (R or S)-2-(6-(3-(2-fluoro-5-(trifluoromethoxy)benzyl)-1,2,4-oxadiazol-5-yl)pyridin-2-yl)-2-hydroxypropane-1-sulfonamide] | 3.6 | 27 | 
14 | C[C@](O)(CS(N)(=O)=O)c1cccc(-c2nnn(Cc3cc(OC(F)(F)F)ccc3Cl)n2)n1 [Example 77] |  |  | 13
15 | C[C@](O)(CS(N)(=O)=O)c1cccc(-c2nnn(Cc3cc(Cl)ccc3Cl)n2)n1 [Example 78] |  |  | 10
16 | C[C@](O)(CS(N)(=O)=O)c1cccc(-c2nnn(Cc3c(F)cccc3C(F)(F)F)n2)n1 [Example 79] |  |  | 13
17 | C[C@](O)(CS(N)(=O)=O)c1cccc(-c2nnn(Cc3ccc(Cl)c(C(F)(F)F)c3)n2)n1 [Example 80] |  |  | 14
18 | C[C@](O)(CS(N)(=O)=O)c1cccc(-c2nnn(Cc3cc(Cl)c(F)cc3F)n2)n1 [Example 81] |  |  | 21
19 | C[C@](O)(CS(N)(=O)=O)c1cccc(-c2nnn(Cc3cccc(OC(F)(F)F)c3)n2)n1 [Example 82] |  |  | 7.3
20 | C[C@](O)(CS(N)(=O)=O)c1cccc(-c2nnn(Cc3cc(C(F)(F)F)cc(C(F)(F)F)c3)n2)n1 [Example 83] |  |  | 18
21 | C[C@](O)(CS(N)(=O)=O)c1cccc(-c2nnn(Cc3cc(OC(F)F)ccc3F)n2)n1 [Example 84] |  |  | 14
22 | C[C@](O)(CS(N)(=O)=O)c1cccc(-c2nnn(Cc3c(Cl)cccc3Cl)n2)n1 [Example 85] |  |  | 5.2
23 | C[C@](O)(CS(N)(=O)=O)c1cccc(-c2nnn(Cc3cc(OC(F)(F)F)ccc3Br)n2)n1 [Example 86] |  |  | 6.3
24 | C[C@](O)(CS(N)(=O)=O)c1cccc(-c2nnn(Cc3c(C(F)(F)F)ccc(Cl)c3Cl)n2)n1 [Example 87] |  |  | 9.3
25 | C[C@](O)(CS(N)(=O)=O)c1cccc(-c2nnn(Cc3cc(Cl)cc(OC(F)(F)F)c3)n2)n1 [Example 88] |  |  | 28
26 | C[C@](O)(CS(N)(=O)=O)c1cccc(-c2nnn(Cc3cc(Cl)ccc3C(F)(F)F)n2)n1 [Example 89] |  |  | 27
27 | C[C@](O)(CS(N)(=O)=O)c1cccc(-c2nnn(Cc3cc(Cl)cc(Cl)c3Cl)n2)n1 [Example 90] |  |  | 8.9

From patent publication US20250034108A1, “SODIUM CHANNEL BLOCKERS” (NOVARTIS AG, priority 2023, published 2025)
